Results taken from US9440914B2, “Method for treating glioblastomas and other tumors” (THE FEINSTEIN INSTITUTE FOR MEDICAL RESEARCH, priority 2013, dated 2016).

What was measured:
[1] = phase II clinical trial for Crohn's disease; cited from earlier work
GL261 cells [2] = assay: serum-stimulated GL261 invasion (transwell, BME); format: cell-based, murine; conditions: 10 μM; 10% FBS in bottom well, 48 h
Description: FIG. 1A-1C. Semapimod inhibits microglia-stimulated glioblastoma invasion in vitro. (A) Semapimod inhibits microglia-stimulated glioblastoma cell invasion. GL261 cells were embedded in basement membrane extract (BME) with or without microglia in the presence of the indicated concentrations of semapimod, layered in the transwell and incubated for 48 h. The number of invading GL261 cells was determined. Data shown represent the average+/−SEM of 3 independent experiments, performed in duplicate. […] GL261 cells embedded in BME in the presence of the indicated concentration of semapimod, were layered in the transwell and incubated for 48 h. Serum (10% FBS) was added to the bottom well. The number of invading GL261 cells was determined. Data shown represent the average+/−SEM of 3 independent experiments. (C) Semapimod inhibits glioblastoma cell-stimulated microglia invasion. Glioblastoma cells were plated in the bottom well and microglia were embedded in BME in the presence or absence of 200 nM semapimod, layered in the transwell and incubated for 48 h. […]
Invasion Assays: Glioblastoma and microglial cells were labelled with cell tracker green CMFDA and with cell tracker red CMTPX, respectively, and then embedded in 50 μL of 10 mg/mL basement membrane extract (BME) (Trevigen). […] All invaded cells were counted.

[3] = tested on: GL261 murine glioblastoma cells co-cultured with microglia; assay: 3-dimensional microglia-glioblastoma co-culture transwell invasion assay (microglia-stimulated GL261 invasion); format: cell-based; conditions: 3:1 glioblastoma cells to microglia, BME, no serum, 48 h; read-out: IC50 for interference with microglia-stimulated GL261 invasion
Description: Invasion Assays: Glioblastoma and microglial cells were labelled with cell tracker green CMFDA and with cell tracker red CMTPX, respectively, and then embedded in 50 μL of 10 mg/mL basement membrane extract (BME) (Trevigen). The mixture was then placed in a transwell insert (previously coated with 1 μg/mL fibronectin on the bottom side of the 8 μm filter to maintain adhesion of the cells that invaded through the filter) and allowed to polymerize for 30 min at 37° C. Subsequently, serum free medium was added to both wells. To maintain constant cell numbers, cells were plated at a density per invasion chamber of 15×10^4 GL261 cells and 5×10^4 microglia cells in MSFM. Semapimod or its diluent was added at varying concentrations into the BME and in the media above and below the transwell. Invasion chambers were incubated for 48 h and subsequently fixed in 3.7% formaldehyde in phosphate-buffered saline (PBS). The gel in the transwell inserts was carefully removed. Invaded glioblastoma cells were imaged with a Zeiss Axiovision inverted microscope and a 10× objective. All invaded cells were counted.
To determine the effect of microglia on the invasive properties of glioblastoma cells, a novel 3-dimensional microglia-glioblastoma co-culture assay was designed that provides a better approximation of the in vivo setting than a 2-dimensional configuration. […]

GL261 cells [4] = assay: proliferation assay of GL261 co-cultured with microglia (SRB); format: cell-based, murine; conditions: 200 nM, 3 days
Description: Proliferation Assay: 50,000 GL261 cells were cultured overnight in the absence or presence or microglia (50,000 or 150,000) in serum-containing medium and subsequently cultured in the presence or absence of 200 nM semapimod in a 6-well dish in serum-free conditions. Microglia were added in a ratio of 1:1 or 1:3 GL261:microglia. After 72 h of incubation, plates were washed in PBS and fixed in 3.7% formaldehyde in PBS. In initial experiments, the microglia were stained with tomato lectin for 45 mins and stained all nuclei with DAPI. Ten fluorescence micrographs of each culture were taken with a Zeiss Axiovert-based imaging system. […] Therefore in subsequent experiments the cells were stained with SRB as described for the colony formation assay. After drying, the plates were de-stained with 500 μL of 10 mM Tris base (Sigma). Eluted SRB was measured by absorbance at 490 nm.

In the case of C/C(=N\NC(=N)N)c1cc(NC(=O)CCCCCCCCC(=O)Nc2cc(/C(C)=N/NC(=N)N)cc(/C(C)=N/NC(=N)N)c2)cc(/C(C)=N/NC(=N)N)c1 [semapimod], the tolerability in humans [1] is given as “very well tolerated”, the “effect on serum-stimulated GL261 invasion” value (GL261 cells [2]) is given as “does not affect” and the IC50 [3] is given as under 50 nM. For the same compound, the “effect on microglia-stimulated glioblastoma cell proliferation” value (GL261 cells [4]) was “does not affect”.
